From ChEMBL document CHEMBL4422633, “Antioxidant-Inspired Drug Discovery: Antitumor Metabolite Is Formed in Situ from a Hydroxycinnamic Acid Derivative upon Free-Radical Scavenging” (J Med Chem, 2019)
pIC50: −log10 of the molar value.

How the values were obtained:
[1] = Antioxidant activity assessed as hydroxyl radical scavenging activity by measuring inhibition of damage to 2-deoxy-D-ribose after 3 mins by TBA-based Fenton reaction assay; type: functional
[2] = Cytotoxicity against mouse L5178 cells assessed as reduction in cell viability after 72 hrs by MTT assay; type: functional, cell-based; details: L5178, 72 h
[3] = Cytotoxicity against mouse L5178B1 cells transfected with pHa MDR1/A retrovirus assessed as reduction in cell viability after 72 hrs by MTT assay; type: functional, cell-based; details: MDR1, 72 h

| SMILES | pIC50 [1] | pIC50 [2] | pIC50 [3] |
| --- | --- | --- | --- |
| CC(C)(C)/[N+]([O-])=C/c1ccc(S(=O)(=O)O)cc1S(=O)(=O)O | 2.74 | – | – |
| O=Cc1ccc(O)cc1 [4-HYDROXYBENZALDEHYDE] | – | < 3.82 | < 3.82 |
| COC(=O)/C=C/c1ccc(O)c(O)c1 [METHYLCAFFEATE] | – | 3.98 | 3.95 |
